# Experimental data from patent US8247423B2, “Methods and compositions for the treatment of cancer, tumors, and tumor-related disorders” (Tragara Pharmaceuticals, Inc., priority 2007, dated 2012).
# Test: clinical
# Conditions: human, in vivo, po
# Procedure: Methods: Subjects with recurrent or metastatic NSCLC were treated with erlotinib (150 mg/day PO) and escalating doses of 2-(4-ethoxyphenyl)-4-methyl-1-(4-sulfamoylphenyl)-pyrrole (100-1200 mg/day PO). Pharmacokinetics for 2-(4-ethoxyphenyl)-4-methyl-1-(4-sulfamoylphenyl)-pyrrole and erlotinib were evaluated.
smiles,measurement,value
CCOc1ccc(-c2cc(C)cn2-c2ccc(S(N)(=O)=O)cc2)cc1,Tmax,2 h
same,half-life,11.8 h
